Results: ChEMBL document CHEMBL1134331, “New dermatological agents for the treatment of psoriasis” (J Med Chem, 2001)
Blank lines part the entries; values can stand above or below the compound they belong to.

Experiments:
[1] = target: T1, Vitamin D3 receptor (Homo sapiens, UniProt P11473); test: Binding affinity to VDR receptor
T1 sequence (P11473 whole entry): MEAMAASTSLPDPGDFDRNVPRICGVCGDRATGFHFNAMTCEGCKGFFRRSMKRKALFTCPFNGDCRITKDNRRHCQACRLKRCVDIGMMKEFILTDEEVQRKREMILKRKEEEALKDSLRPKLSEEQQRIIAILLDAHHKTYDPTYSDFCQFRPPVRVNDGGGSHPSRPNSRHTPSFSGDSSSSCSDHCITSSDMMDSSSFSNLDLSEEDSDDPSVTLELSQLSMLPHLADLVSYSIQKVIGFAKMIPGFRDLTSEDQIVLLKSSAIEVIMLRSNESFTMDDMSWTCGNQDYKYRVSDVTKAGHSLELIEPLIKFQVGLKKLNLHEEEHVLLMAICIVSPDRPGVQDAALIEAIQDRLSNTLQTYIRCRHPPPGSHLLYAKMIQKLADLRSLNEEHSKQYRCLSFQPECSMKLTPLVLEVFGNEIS

[2] = species: Homo sapiens; test: Inhibition of growth of human keratinocytes; assay type: functional
[3] = target: Inosine-5'-monophosphate dehydrogenase (IMPDH) (Homo sapiens, UniProt P20839+P12268); test: Inhibition of […] dehydrogenase (IMPDH); range 7-8 nM; assay type: protein assay
[4] = Competitive inhibition of ATP binding
[5] = Inhibition of growth of T-cell lymphoblastoma; range 1-10 uM; assay type: functional

Compound: C=C1/C(=C\C=C2/CCC[C@]3(C)C([C@@H](C)CSc4ccc(C(C)(C)O)cc4)CC[C@@H]23)C[C@@H](O)C[C@@H]1O (some centres undefined)
Kd [1]: 89 pM | IC50 [2]: 280 pM

Compound: C/C(O)=C(\C#N)C(=O)Nc1ccc(C(F)(F)F)cc1
Concentration [5]: 1 µM

Compound: C=C1/C(=C\C=C2/CCC[C@]3(C)C([C@@H](C)COc4ccc(C(C)(C)O)cc4)CC[C@@H]23)C[C@@H](O)C[C@@H]1O (some centres undefined)
Kd [1]: 73 pM | IC50 [2]: 110 pM

Compound: C=C1/C(=C\C=C2/CCC[C@]3(C)[C@@H]([C@H](C)/C=C/[C@@H](O)C4CC4)CC[C@@H]23)C[C@@H](O)C[C@@H]1O [CALCIPOTRIENE]
IC50 [2]: 32000 pM

More lines, now with the values ahead:

IC50 [3]: 7000 pM
Compound: COc1cc(NC(=O)Nc2cccc(CNC(=O)O[C@H]3CCOC3)c2)ccc1-c1cnco1 [MERIMEPODIB]

IC50 [4]: 25 pM
Compound: COc1cc2ncnc(Nc3cccc(Br)c3)c2cc1OC

IC50 [3]: 7000 pM
Compound: COc1c(C)c2c(c(N)c1C/C=C1\CCCC1[C@H](C)C(=O)O)C(=O)OC2 (some centres undefined)
